Measured values from patent US5475012A, “N-cyanoamidine derivatives as anti-influenza agents” (priority 1994, dated 1995).
In brackets after ≈: the same amount, converted by molar mass.

How the values were obtained:
FluA/Kaw = test: microbe, parasite or virus in culture; type: cell-based, influenza A virus; conditions: for IC50: Influenza A virus, in Gallus gallus, read-out: Median Inhibiting Concentration (IC50), FluA/Kaw; for activity against A/Kaw (in words): strain specificity
in vitro [1] = conditions: human, a549 cells
FluA/WSN = test: Anti-influenza A activity, FluA/WSN (cytopathic effect, crystal violet stain, MDCK cells); type: cell-based, influenza A virus; conditions: for IC50: Influenza A virus, WSN, Table II, tested in MDCK cells, read-out: Median Inhibiting Concentration (IC50), FluA/WSN; for activity against A/WSN (in words): strain specificity
in vitro [2] = conditions: dog, mdck
FluA/LA = test: microbe, parasite or virus in culture; type: cell-based, influenza A virus; conditions: for IC50: Influenza A virus, in Gallus gallus, read-out: Median Inhibiting Concentration (IC50), FluA/LA; for activity against A/LA (in words): strain specificity
in vitro [3] = conditions: african green monkey, vero cells
in vitro [4] = conditions: human, hep-2 cells
FluB/Yama = test: microbe, parasite or virus in culture; type: cell-based, influenza B virus; conditions: for IC50: Influenza B virus, read-out: Median Inhibiting Concentration (IC50), FluB/Yama; for activity against B/Yama (in words): strain specificity
in vitro [5] = conditions: human, mrc-5 cells

SMILES: NC12CC3CC(CC(C3)C1)C2 [Amantadine, reference compound]
- IC50 (FluA/Kaw): 0.5 to 1.6 µg/mL (≈ 3.31 to 10.6 µM)
- MCC (in vitro [1]): > 100 µg/mL
- IC50 (FluA/WSN): 16 µg/mL (≈ 106 µM)
- MCC (in vitro [2]): > 100 µg/mL
- IC50 (FluA/LA): 0.16 µg/mL (≈ 1.06 µM)
- MCC (in vitro [3]): > 100 µg/mL
- MCC (in vitro [4]): > 100 µg/mL
- IC50 (FluB/Yama): > 16 µg/mL
- MCC (in vitro [5]): > 100 µg/mL

SMILES: CC(Cc1ccccc1)(C(=NC#N)NCCc1ccccc1)c1ccccn1 (stereo not drawn) [Example 1, N'-Cyano-α-methyl-N-(2-phenylethyl)-α-(phenylmethyl)-2-pyridineethanimidamide]
- IC50 (FluA/Kaw): 0.5 to 1.6 µg/mL (≈ 1.36 to 4.34 µM)
- activity against A/Kaw (in words) (FluA/Kaw): active
- MCC (in vitro [1]): > 50 µg/mL
- IC50 (FluA/WSN): 0.16 to 0.5 µg/mL (≈ 0.434 to 1.36 µM)
- activity against A/WSN (in words) (FluA/WSN): active
- MCC (in vitro [2]): > 50 µg/mL
- IC50 (FluA/LA): > 16 µg/mL
- activity against A/LA (in words) (FluA/LA): inactive
- MCC (in vitro [3]): > 50 µg/mL
- MCC (in vitro [4]): > 50 µg/mL
- IC50 (FluB/Yama): > 16 µg/mL
- activity against B/Yama (in words) (FluB/Yama): inactive
- MCC (in vitro [5]): > 50 µg/mL

SMILES: CC(Cc1ccccc1)(C(=NC#N)NCc1ccco1)c1ccccn1 (stereo not drawn) [Example 2, N'-Cyano-N-(2-furanylmethyl)-α-methyl-α-(phenylmethyl)-2-pyridineethanimidamide]
- IC50 (FluA/Kaw): 0.5 to 1.6 µg/mL (≈ 1.45 to 4.65 µM)
- activity against A/Kaw (in words) (FluA/Kaw): active
- MCC (in vitro [1]): > 50 µg/mL
- IC50 (FluA/WSN): 0.16 to 0.5 µg/mL (≈ 0.465 to 1.45 µM)
- activity against A/WSN (in words) (FluA/WSN): active
- MCC (in vitro [2]): > 50 µg/mL
- IC50 (FluA/LA): > 16 µg/mL
- activity against A/LA (in words) (FluA/LA): inactive
- MCC (in vitro [3]): > 50 µg/mL
- MCC (in vitro [4]): > 50 µg/mL
- IC50 (FluB/Yama): > 16 µg/mL
- activity against B/Yama (in words) (FluB/Yama): inactive
- MCC (in vitro [5]): > 50 µg/mL

SMILES: CSC(=NC#N)NCCSCc1cccnc1Nc1ccccc1 [Example 3, N'-cyano-N-[2-[[[2-(phenylamino)-3-pyridinyl]methyl]thio]ethyl]carbamimidothioic acid methyl ester]
- MCC (in vitro [1]): > 100 µg/mL
- MCC (in vitro [2]): > 100 µg/mL
- MCC (in vitro [3]): > 100 µg/mL
- MCC (in vitro [4]): > 100 µg/mL
- MCC (in vitro [5]): > 100 µg/mL

SMILES: NC(=O)c1ncn([C@@H]2O[C@H](CO)[C@@H](O)[C@H]2O)n1 [Ribavirin, reference compound]
- IC50 (FluA/Kaw): > 16 µg/mL
- MCC (in vitro [1]): > 100 µg/mL
- IC50 (FluA/WSN): 1.6 to 5 µg/mL (≈ 6.55 to 20.5 µM)
- MCC (in vitro [2]): > 100 µg/mL
- IC50 (FluA/LA): > 16 µg/mL
- MCC (in vitro [3]): > 100 µg/mL
- MCC (in vitro [4]): > 100 µg/mL
- IC50 (FluB/Yama): 1.6 to 5 µg/mL (≈ 6.55 to 20.5 µM)
- MCC (in vitro [5]): > 100 µg/mL
